This is an account of results in PubChem BioAssay (NCI).

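Cells were grown in 96-well plates and exposed to each compound for 48 hours at five concentrations; endpoints were interpolated linearly between bracketing concentrations, or set to the highest concentration if not reached. TGI: concentration producing complete growth inhibition.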

Test systems include A498 renal; SF-539 CNS; A549 NSCLC; RPMI-8226 leukemia; SK-MEL-5 melanoma; HT29 colon; OVCAR-8 ovarian; HCC-2998 colon.
Test in all cases: NCI tumour cell line growth inhibition, 48 h

As for `O=c1[nH]cc(C(F)(C(F)(F)F)C(F)(F)F)c(=O)[nH]1`, the TGI in the test on A498 renal, in the test with SF-539 CNS, in the test with A549 NSCLC, in the test on RPMI-8226 leukemia, in the test with SK-MEL-5 melanoma and in the test with HT29 colon was more than 100 µM in each case. Besides, the TGI in the test on OVCAR-8 ovarian is more than 100 µM.
As to `COc1ccc(C)cc1C1CCC(=O)O1` (stereo not drawn), the TGI in the test with A498 renal, with HCC-2998 colon, in the test with SF-539 CNS, in the test with A549 NSCLC, in the test with RPMI-8226 leukemia and with SK-MEL-5 melanoma was more than 100 µM in each case. Besides, the TGI with HT29 colon and in the test with OVCAR-8 ovarian was more than 100 µM each time.
Consider `COc1cc(C(C#N)NNc2nc(C)cc(=O)[nH]2)cc(OC)c1OC` (stereo not drawn), for which the TGI with SF-539 CNS, in the test on A549 NSCLC, with RPMI-8226 leukemia, in the test with SK-MEL-5 melanoma, in the test on HT29 colon and with OVCAR-8 ovarian was more than 100 µM in each case.
In the case of `CC(C)N1C(C)[C@@H](c2ccccc2)O[P@]1(=O)CC1=CCCCC1` (stereo partly drawn), the TGI with A498 renal, with HCC-2998 colon, in the test with SF-539 CNS, in the test on A549 NSCLC, with RPMI-8226 leukemia and in the test on SK-MEL-5 melanoma was more than 100 µM throughout. Also, the TGI in the test on HT29 colon and in the test on OVCAR-8 ovarian was more than 100 µM each time.
In the case of `C/C(=N\NS(=O)(=O)c1ccc([N+](=O)[O-])cc1)c1ccc[n+]([O-])n1`, the TGI in the test with A498 renal is 4 µM; in the test on HCC-2998 colon, 22.3 µM; in the test with SF-539 CNS, 4.94 µM; in the test on A549 NSCLC, more than 100 µM; in the test with RPMI-8226 leukemia, 7.17 µM; in the test with SK-MEL-5 melanoma, 5.97 µM. For the same compound, the TGI worked out at 3.98 µM in the test on HT29 colon and 6.61 µM in the test with OVCAR-8 ovarian.
Consider `CCCCCCCCCCCCCCCCCC(=O)NCC(COP(=O)(O)O)OCC` (stereo not drawn), for which the TGI in the test with A498 renal, in the test with HCC-2998 colon, with SF-539 CNS, in the test with A549 NSCLC, in the test with RPMI-8226 leukemia and in the test on SK-MEL-5 melanoma was more than 100 µM in each case. The TGI in the test on HT29 colon and in the test with OVCAR-8 ovarian was more than 100 µM in each case.
`COc1ccc(NC(=O)C2C(=O)N(c3ccc(OC)cc3)C(=O)/C2=N\NC(N)=O)cc1` (stereo not drawn): the TGI was 45 µM in the test with A498 renal; more than 100 µM in the test with HCC-2998 colon; 30.8 µM with SF-539 CNS; more than 100 µM with RPMI-8226 leukemia; 37.7 µM in the test on SK-MEL-5 melanoma; more than 100 µM in the test with HT29 colon. Further, in the test on OVCAR-8 ovarian, the TGI amounted to 34.6 µM.
As to `c1ccc(-c2ccnc3c2ccc2c(-c4ccccc4)ccnc23)cc1`, the TGI worked out at 6.99 µM with A498 renal; 14.3 µM with HCC-2998 colon; 5.62 µM in the test with SF-539 CNS; 8.71 µM in the test with A549 NSCLC; 11.2 µM in the test with SK-MEL-5 melanoma; 10.8 µM in the test on HT29 colon. The compound further gave a TGI in the test with OVCAR-8 ovarian of 4.75 µM.
Take `Cc1noc(/N=C2\C=C(Nc3onc(C)c3C)C(=O)c3ccccc32)c1C`: the TGI in the test with A498 renal, with HCC-2998 colon, with SF-539 CNS, in the test on A549 NSCLC, in the test with RPMI-8226 leukemia and in the test on SK-MEL-5 melanoma was more than 100 µM in each case. Further, the TGI with HT29 colon and in the test with OVCAR-8 ovarian was more than 100 µM throughout.
As for `COC(=O)C(C(=O)C(N)=O)c1csc(-n2nc(-c3ccccc3)cc2-c2ccccc2)n1` (stereo not drawn), the TGI in the test on A498 renal, in the test on HCC-2998 colon, in the test on SF-539 CNS, in the test on A549 NSCLC, with RPMI-8226 leukemia and in the test with SK-MEL-5 melanoma was more than 31.6 µM in each case. Besides, the TGI is more than 100 µM with HT29 colon and more than 31.6 µM in the test with OVCAR-8 ovarian.
With `S=c1c2ccccc2c(=S)n2n1CC=CC2`, the TGI in the test on A498 renal, in the test with HCC-2998 colon, in the test with SF-539 CNS, with A549 NSCLC, in the test with RPMI-8226 leukemia and with SK-MEL-5 melanoma was more than 100 µM throughout. In addition, the TGI in the test on HT29 colon and in the test on OVCAR-8 ovarian was more than 100 µM in each case.
For the compound `c1ccc(-c2nnc3nn4c(-c5ccccc5)cnnc4c3c2-c2ccccc2)cc1`, the TGI was more than 100 µM with A498 renal; more than 100 µM in the test with HCC-2998 colon; 99.5 µM in the test with SF-539 CNS; more than 100 µM in the test on A549 NSCLC; more than 100 µM in the test on RPMI-8226 leukemia; more than 100 µM in the test with SK-MEL-5 melanoma. For the same compound, the TGI in the test with HT29 colon and with OVCAR-8 ovarian was more than 100 µM throughout.
As to `COc1ccc2c([nH]c3c(O)c(-c4c(C)cc5c([nH]c6c(CC=C(C)C)c(OC)ccc65)c4O)c(C)cc32)c1CC=C(C)C`, the TGI in the test with A498 renal, in the test with HCC-2998 colon, with SF-539 CNS, in the test on A549 NSCLC, in the test with RPMI-8226 leukemia and in the test with SK-MEL-5 melanoma was more than 100 µM throughout. Moreover, the TGI in the test on HT29 colon and with OVCAR-8 ovarian was more than 100 µM in each case.
For the compound `C#CCOCn1cnc2ncnc(N)c21`, the TGI in the test with A498 renal, in the test with HCC-2998 colon, with SF-539 CNS, in the test on A549 NSCLC, in the test with RPMI-8226 leukemia and with SK-MEL-5 melanoma was more than 100 µM in each case. For the same compound, the TGI with HT29 colon and in the test with OVCAR-8 ovarian was more than 100 µM in each case.
`Cc1ccc(/C=N/NS(=O)(=O)c2ccccc2)c(C)c1`: the TGI in the test with A498 renal, in the test with HCC-2998 colon, in the test on SF-539 CNS, in the test with A549 NSCLC, in the test with RPMI-8226 leukemia and in the test on SK-MEL-5 melanoma was more than 100 µM throughout. Further, the TGI in the test on HT29 colon and in the test on OVCAR-8 ovarian was more than 100 µM throughout.
Regarding `CC(=O)c1c2c(cc3c1CC1(C3)Cc3cc4c(c(C(=O)O)c3C1)CCC4)CCC2` (stereo not drawn), the TGI in the test on HCC-2998 colon is more than 100 µM; in the test with SF-539 CNS it was 59.6 µM; in the test on A549 NSCLC it was more than 100 µM; in the test on SK-MEL-5 melanoma it was more than 100 µM; with HT29 colon it was more than 100 µM; in the test with OVCAR-8 ovarian, more than 100 µM.
On to `COc1ccc2c(c1)c1c3n2CCNN=C3CCC1`, for which the TGI in the test on A498 renal, with HCC-2998 colon, with SF-539 CNS, in the test on A549 NSCLC, in the test with RPMI-8226 leukemia and with SK-MEL-5 melanoma was more than 100 µM throughout. The TGI in the test with HT29 colon and with OVCAR-8 ovarian was more than 100 µM each time.
Regarding `O=CCCCC(Sc1ccccc1)Sc1ccccc1`, the TGI in the test with A498 renal was more than 100 µM; with HCC-2998 colon, 84 µM; in the test on A549 NSCLC, more than 100 µM; in the test on RPMI-8226 leukemia, 48.6 µM; in the test on SK-MEL-5 melanoma, 30.8 µM; with OVCAR-8 ovarian, 35.8 µM.
As for `O=c1c2ccccc2nc(-c2ccccc2)n1NC(=S)Nc1cccc(Cl)c1`, the TGI in the test on A498 renal, in the test with SF-539 CNS, in the test with A549 NSCLC, with RPMI-8226 leukemia, with SK-MEL-5 melanoma and in the test on HT29 colon was more than 100 µM in each case. In the test on OVCAR-8 ovarian, this compound yielded a TGI of more than 100 µM.
For the compound `O=C1C=Cc2ncccc2C1=O`, the TGI was more than 91.5 µM in the test with A498 renal; more than 61.6 µM with HCC-2998 colon; 40.5 µM with SF-539 CNS; more than 67.6 µM with A549 NSCLC; 62.4 µM in the test on RPMI-8226 leukemia; 28.2 µM in the test on SK-MEL-5 melanoma. Besides, the TGI with HT29 colon was 43.4 µM; with OVCAR-8 ovarian it was 30.2 µM.
In the case of `CC(=O)Nc1ccc(-c2nnc(SCC(=O)Nc3ccc(Cl)cc3)o2)cc1`, the TGI in the test with A498 renal is 31.7 µM; in the test on HCC-2998 colon it was 37.5 µM; in the test with SF-539 CNS, 30.2 µM; with A549 NSCLC, 32 µM; in the test on RPMI-8226 leukemia it was more than 100 µM; with SK-MEL-5 melanoma, 19.7 µM. The TGI in the test with HT29 colon came out at 23.2 µM; in the test on OVCAR-8 ovarian, 74.1 µM.
On to `CC(=O)OC(=O)O/C=C\CCl`, for which the TGI with A498 renal, with HCC-2998 colon, in the test with SF-539 CNS, with A549 NSCLC, with RPMI-8226 leukemia and with SK-MEL-5 melanoma was more than 100 µM each time. In the test on OVCAR-8 ovarian, this compound registered a TGI of more than 100 µM.
Turning to `CCOC(=O)CC(NC(=O)c1ccc(N=NN(C)C)cc1)C(=O)OCC` (stereo not drawn), the TGI with A498 renal, in the test with HCC-2998 colon, in the test with SF-539 CNS, in the test with A549 NSCLC, with RPMI-8226 leukemia and with SK-MEL-5 melanoma was more than 100 µM throughout. For the same compound, the TGI in the test on HT29 colon and in the test with OVCAR-8 ovarian was more than 100 µM in each case.
`O=S1(=O)c2ccccc2N=C(c2ccccc2Cl)CC1c1ccc(F)cc1` (stereo not drawn): the TGI in the test with A498 renal came out at 35.7 µM; in the test with HCC-2998 colon it was 28.4 µM; with SF-539 CNS, 35.7 µM; in the test on A549 NSCLC, 47.4 µM; with RPMI-8226 leukemia it was 14.4 µM; with SK-MEL-5 melanoma, 31.4 µM. Further, the TGI with OVCAR-8 ovarian worked out at 48.3 µM.
For the compound `Cn1nc(-c2ccccc2)c(C(=O)/C=C/c2ccc(Cl)cc2)c(N2CCCC2)c1=O`, the TGI is 13.2 µM in the test with SF-539 CNS; 49.4 µM in the test on A549 NSCLC; 7.84 µM in the test with RPMI-8226 leukemia; 18.6 µM in the test on SK-MEL-5 melanoma; 15.3 µM in the test with HT29 colon; 29.7 µM in the test with OVCAR-8 ovarian.
With `CCc1cc(Cc2ccc(C)c(NC(=O)C(=O)C3C(=O)NC(=O)NC3=O)c2CC)cc(C)c1NC(=O)C(=O)C1C(=O)NC(=O)NC1=O`, the TGI with A498 renal, in the test with HCC-2998 colon, in the test with SF-539 CNS, in the test on A549 NSCLC, in the test on RPMI-8226 leukemia and in the test on SK-MEL-5 melanoma was more than 100 µM throughout. Besides, in the test with OVCAR-8 ovarian, the TGI is more than 100 µM.
